From patent US20260285831A1, “LACTAM DERIVATIVES FOR INHIBITING NLRP3 AND USES THEREOF” (Ventus Therapeutics U.S., Inc., priority 2023, published 2026)

What follows are compounds tested against T1, human NLRP3 (Homo sapiens, UniProt Q96P20) (assay: Human whole blood (hWB) NLRP3 assay (IL-1β release after LPS priming and ATP activation)). Details: human whole blood, LPS 1 μg/ml priming, ATP activation; Table C, class symbols; read-out: hWB IL-1β IC50.
T1 construct: Human whole blood is drawn from healthy volunteers after obtaining written informed consent; from tissue; host or cells: human whole blood from healthy volunteers (heparin lithium tubes)
T1 sequence (Q96P20 whole entry): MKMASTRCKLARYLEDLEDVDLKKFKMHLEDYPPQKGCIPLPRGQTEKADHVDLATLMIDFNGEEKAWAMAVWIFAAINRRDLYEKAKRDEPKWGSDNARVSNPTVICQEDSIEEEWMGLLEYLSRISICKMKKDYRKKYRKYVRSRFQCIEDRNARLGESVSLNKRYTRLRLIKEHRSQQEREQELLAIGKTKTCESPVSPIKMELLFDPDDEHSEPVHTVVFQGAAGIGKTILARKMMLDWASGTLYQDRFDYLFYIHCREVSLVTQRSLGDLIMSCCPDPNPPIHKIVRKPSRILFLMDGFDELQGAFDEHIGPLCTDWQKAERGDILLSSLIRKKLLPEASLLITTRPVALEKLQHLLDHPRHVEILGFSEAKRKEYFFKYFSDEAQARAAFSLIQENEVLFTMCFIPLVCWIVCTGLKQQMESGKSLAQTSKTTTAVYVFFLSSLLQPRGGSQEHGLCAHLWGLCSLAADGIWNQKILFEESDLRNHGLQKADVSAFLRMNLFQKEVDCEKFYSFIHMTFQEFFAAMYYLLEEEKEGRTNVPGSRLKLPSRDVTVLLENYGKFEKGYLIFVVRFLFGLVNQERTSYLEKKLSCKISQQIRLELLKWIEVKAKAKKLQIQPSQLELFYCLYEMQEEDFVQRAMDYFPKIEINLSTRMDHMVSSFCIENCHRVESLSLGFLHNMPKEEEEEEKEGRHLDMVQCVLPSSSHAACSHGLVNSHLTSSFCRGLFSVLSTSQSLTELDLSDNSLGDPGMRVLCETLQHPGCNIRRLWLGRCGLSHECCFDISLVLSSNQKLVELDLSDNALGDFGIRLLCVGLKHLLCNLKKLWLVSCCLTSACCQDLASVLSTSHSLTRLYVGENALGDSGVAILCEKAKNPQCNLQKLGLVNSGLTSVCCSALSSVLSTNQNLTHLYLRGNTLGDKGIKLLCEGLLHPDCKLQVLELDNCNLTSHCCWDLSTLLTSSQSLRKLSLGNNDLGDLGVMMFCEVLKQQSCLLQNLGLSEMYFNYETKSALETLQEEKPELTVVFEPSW
Format: cell-based
Description: Human Whole Blood (hWB) NLRP3 Assay
Human whole blood is drawn from healthy volunteers after obtaining written informed consent. Heparin lithium coated tubes are used to collect blood from volunteers. Blood samples are distributed on 96 well plates using 90 μl per well.
Priming procedure: Priming is performed by adding 5 μl of LPS (026:B6; Sigma L-2654) at a final concentration of 1 μg/ml for 4.5 hours in a humidified incubator with 37° C., 5% CO2. Thirty minutes prior to NLRP3 activation, 5 μl of a 20× compound solution or vehicle (2% dimethylsulfoxide (DMSO)) is added to each well and plates were incubated on a shaker (450 rpm) in a humidified incubator with 37° C., 5% CO2.
Alternative priming procedure: Thirty minutes prior to LPS priming, 5 μl of a 20× compound solution or vehicle (2% dimethylsulfoxide (DMSO)) is added to each well and plates were incubated on a shaker (450 rpm) in a humidified incubator with 37° C., 5% CO2. Priming is performed by adding 5 μl of LPS (026:B6; Sigma L-2654) at a final concentration of 1 μg/ml for 5 hours in a humidified incubator with 37° C., 5% CO2.
Activation is then performed by adding 3.3 μl of a 31×ATP solution per well. At the end of the 30 minutes stimulation, the plates are centrifuged (800 g, 10 min, room temperature) and the plasma from each well is frozen at −80° C. […] levels in the supernatant were analyzed using a mesoscale discovery assay (MSD K151TUK) according to the manufacturers' instructions.
There is no detectable difference in assay IC50 results using the priming procedure versus the alternative priming procedure.
Data provided in Table C, below. hWB […] Assay: A represents an IC50 value <0.3 μM; B represents an IC50 value ≥0.3 μM and <0.5 μM; C represents an IC50 value ≥0.5 μM and <1.0 μM; D represents an IC50 value ≥1.0 μM and <10 μM; E represents an IC50 value ≥10 μM. Dashed (--) lines indicate no data available.
`CC1(C)C(=O)N([C@@H]2CCN(CCCC(=O)O)C2=O)c2c(F)cc(C3CC3)c(F)c21` [Compound 16A, (R)-4-(3-(5-cyclopropyl-4,7-difluoro-3,3-dimethyl-2-oxoindolin-1-yl)-2-oxopyrrolidin-1-yl)butanoic acid] was tested, and the IC50 was less than 300 nM.
`CC1(C)C(=O)N([C@H]2CCN(CCCC(=O)O)C2=O)c2c(F)cc(C3CC3)c(F)c21` [Compound 16B, (S)-4-(3-(5-cyclopropyl-4,7-difluoro-3,3-dimethyl-2-oxoindolin-1-yl)-2-oxopyrrolidin-1-yl)butanoic acid] showed an IC50 of 1000 to 10000 nM.
Compound `CC1(C)C(=O)N(c2nccn(CCCC(=O)O)c2=O)c2c(F)cc(C(F)(F)F)c(F)c21` [Compound 17, 4-(3-(4,7-difluoro-3,3-dimethyl-2-oxo-5-(trifluoromethyl)indolin-1-yl)-2-oxopyrazin-1(2H)-yl)butanoic acid] has an IC50 of 500 to 1000 nM.
`CC1(C)C(=O)N(c2nccn(CCCC(=O)O)c2=O)c2ccc(C3CC3)c(F)c21` [Compound 21, 4-(3-(5-cyclopropyl-4-fluoro-3,3-dimethyl-2-oxoindolin-1-yl)-2-oxopyrazin-1(2H)-yl)butanoic acid] gave an IC50 of 1000 to 10000 nM.
